Assays:
[1] = tested on: MHCcln1 template (64% G+C); experiment: Amplification using AmpliTaq DNA polymerase under standard conditions with additives; format: biochemical; details: DMSO 10% v/v, betaine up to 2.5 M, glycerol 10% v/v, formamide 10% v/v, TMACl 0.1 mM to 1.0 M
From the text: (§1) A number of test DNAs are utilized in amplification reactions. Four of the test fragments are:
(ii) a 1.6 kb fragment from the MHC region, MHCclnl, which has a 64% G+C content (see Shukla et al., Nucleic Acids Res. 19:4233, 1991; GenBank Accession No. L20433; SEQ ID No. 3, which presents nucleotides 320 to 850 of L20433);
(§2) Thus, the sizes of the amplified fragments for each of these four templates, with the exception of MHCcln1, include 200 bp of multiple cloning sites of pBluescript vector.
(§3) (See Science 239:487, 1988).

[2] = tested on: OCT-T1 template (80% G+C); experiment: as above; format: biochemical, human; details: DMSO 10% v/v, betaine up to 2.5 M, glycerol 10% v/v, formamide 10% v/v, TMACl 0.1 mM to 1.0 M
From the text: as §1
(iii) a 0.8 kb fragment of human OCT-T1 cDNA, which encodes a transcription factor expressed in T lymphocytes that binds the octamer sequence, and which has an 80% G+C content (see Bhargava et al., Proc. Natl. Acad. Sci. USA 91:10260, 1993; SEQ ID NO. 4); and
As each of these fragments are cloned in pBluescript or a pUC plasmid (MHCcln1), primers for amplification of these fragments are the M13 forward primer ([…]; SEQ. ID No. 1) and the M13 reverse primer ([…]; SEQ ID No. 2). Thus, the sizes of the amplified fragments for each of these four templates, with the exception of MHCcln1, include 200 bp of multiple cloning sites of pBluescript vector.
The two G+C-rich templates are unsuccessfully amplified (MHCcln1 and OCT-T1) using AmpliTaq® DNA polymerase (Perkin-Elmer Cetus) under standard conditions. (See Science 239:487, 1988). […] In addition, betaine (>1.0 M), formamide (>5%), and TMACl (>100 mM) are inhibitory for amplification of the non-G+C-rich template OCT1.

[3] = tested on: OCT1 template; experiment: Amplification using two enzyme mixture Klentaq LA16 with additives; format: biochemical, human; details: for amplification of OCT1: 2.2 M betaine or 10% DMSO, FIG. 1A lanes 1-2; for effect on amplification of OCT1: at 0.1-1.0 M
Procedure: (§4) Each of the G+C-rich templates is set up in an amplification reaction using a two enzyme mixture, with and without the addition of betaine (0.5 to 2.5 M), DMSO (5-10%), formnamide (5-10%), glycerol (5-10%), TMACl (0.1 mM to 1 M), and tetramethylammonium acetate (TMAA) (0.1 mM-1.0 M).
(§5) The amplification reaction (50 μl) is performed in 20 mM Tris-HCl, pH 9.0 at 25° C., containing 150 μg/ml of bovine serum albumin, 16 mM ammonium sulfate, 2.5 mM magnesium chloride, 200 μM of each dNTP, 50 ng each of the M13 forward primer and the M13 reverse primer, 0.5-1.0 ng of plasmid templates and 0.2-0.4 μl of Klentaq LA16 (a 1:15 v/v ratio of Klentaq1 (Ab Peptides Inc., St. Louis, Mo.), which is Taq DNA polymerase lacking the 5′ to 3′ exonuclease activity, and Pfu DNA polymerase (Stratagene, LaJolla, Calif.); the long and accurate (LA) system described in Barnes, Proc. Natl. Acad. Sci. USA 91:2216, 1994). DMSO, TMACl, TMAA, betaine, or the combination of DMSO and betaine is added to aliquots of the same mixture without dNTPs and overlaid with mineral oil. Amplification is performed in a thermocycler instrument using thin-walled tubes (0.5 ml). The tubes are heated at 95° C. for 15 seconds and amplification is initiated by the addition of dNTPs at 80° C. The following cycling conditions are used for 25 cycles: denaturation at 94° C. for 15 seconds, annealing at 50 to 55° C. for 1 minute, and extension at 68° C. for 5 minutes. Following amplification, 10 μl of the resulting product is loaded onto a 1% agarose gel (see Molecular Cloning: A Laboratory Manual by J. Sambrook et al., Cold Spring Harbor, 1989). The amplified DNA is stained with ethidium bromide and the gel is photographed while UV-irradiated by a transilluminator.

[4] = tested on: OCT-T1 template (80% G+C); experiment: as above; format: biochemical, human; details: for amplification of OCT-T1: Klentaq LA16, 2.2 M betaine or 10% DMSO, FIG. 1A lanes 7-8; for OCT-T1 amplification: salt >0.15 M
Procedure: as §4, §5
(§6) Various analogues of betaine and two tetraalkylammonium salts are used to amplify OCT-T1 or TFR templates. Amplification reactions are performed as above in the presence of either 2 M analogue or at least 0.15 M salt.

[5] = tested on: TFR template (44% G+C); experiment: as above; format: biochemical, human; details: for amplification of TFR: Klentaq LA16, 2.2 M betaine or 10% DMSO, FIG. 1A lanes 3-4; for TFR amplification: salt >0.15 M
Procedure: as §4, §5, §6

[6] = tested on: MHCcln1 template; experiment: as above; format: biochemical; details: 2.2 M betaine or 10% DMSO, FIG. 1A lanes 5-6
Procedure: as §4
as §5, with “The following cycling conditions are used for 25 cycles: denaturation at 94° C. for 15 seconds, annealing at 50 to 55° C. for 1 minute, and extension at 68° C. for 5 minutes. Following amplification, 10 μl of the resulting product is loaded onto a 1% agarose gel (see Molecular Cloning: A Laboratory Manual by J. Sambrook et al., Cold Spring Harbor, 1989). The amplified DNA is stained with ethidium bromide and the gel is photographed while UV-irradiated by a transilluminator.” left out

[7] = tested on: mixture of the 4 templates, OCT1, OCT-T1, TFR and MHCcln1; experiment: Amplification of a mixture of the four templates using Klentaq LA16, varying DMSO and/or betaine; format: biochemical; details: for uniformity of amplification of the four templates: DMSO (5%, 10%) or betaine (1.1 M, 2.2 M) alone, FIG. 1B lanes 9-12
Procedure: as §5
Amplification is also performed on a mixture of the four templates, varying the concentrations of DMSO and/or betaine. […] Thus, by adding both DMSO and betaine, preferably within a range of 1.0 M betaine with 6-8% DMSO or 5% DMSO with 1.2-1.8 M betaine, all four templates are amplified.

[8] = tested on: OCT1 template (52% G+C); experiment: Amplification using AmpliTaq DNA polymerase under standard conditions with additives; format: biochemical, human
From the text: as §1
(i) a 2.7 kb cDNA encoding the octamer binding protein, OCT1 GenBank accession No. X13403; Sturm et al., Genes & Dev. 2:1582, 1988; SEQ ID No. 8), which has a 52% G+C content;
as §2, §3

[9] = higher concentration of DMSO (12-15%) or betaine (1.8-2.5 M)

Compound	visible amplification of MHCcln1 [1]	visible amplification of OCT-T1 [2]	amplification of OCT1 [3]	amplification of OCT-T1 [4]	amplification of TFR [5]	amplification of MHCcln1 [6]	effect on amplification of the non-G+C-rich template OCT1 ([8]; betaine >1.0 M)	uniformity of amplification of the four templates [7]	amplification of all four templates [7, 9]	amplification of all four templates ([7]; 2.2 M betaine (lane 12))	effect on amplification of OCT1 [3]	OCT-T1 amplification [4]	TFR amplification [5]	effect on amplification of the non-G+C-rich template OCT1 ([8]; TMACl >100 mM)	effect on amplification of the non-G+C-rich template OCT1 ([8]; formamide >5%)
C[S+](C)[O-] [DMSO, dimethyl sulfoxide]	did not result in visible amplification	did not result in visible amplification	could be amplified	could be amplified	could be amplified	could be amplified	–	not amplified uniformly	variable amplification	–	–	–	–	–	–
CC(=O)[O-].C[N+](C)(C)C [TMAA, tetramethylammonium acetate]	–	–	–	–	–	–	–	–	–	–	inhibit amplification	unable to facilitate amplification	unable to facilitate amplification	–	–
C[N+](C)(C)C.[Cl-] [TMAC, tetramethylammonium chloride]	did not result in visible amplification	did not result in visible amplification	–	–	–	–	–	–	–	–	inhibit amplification	unable to facilitate amplification	unable to facilitate amplification	inhibitory	–
NC=O [formamide]	did not result in visible amplification	did not result in visible amplification	–	–	–	–	–	–	–	–	–	–	–	–	inhibitory

Now from value to molecule, other results behind:

visible amplification of MHCcln1 [1]	visible amplification of OCT-T1 [2]	amplification of OCT1 [3]	amplification of OCT-T1 [4]	amplification of TFR [5]	amplification of MHCcln1 [6]	effect on amplification of the non-G+C-rich template OCT1 ([8]; betaine >1.0 M)	Compound	uniformity of amplification of the four templates [7]	amplification of all four templates [7, 9]	amplification of all four templates ([7]; 2.2 M betaine (lane 12))	effect on amplification of OCT1 [3]	OCT-T1 amplification [4]	TFR amplification [5]	effect on amplification of the non-G+C-rich template OCT1 ([8]; TMACl >100 mM)	effect on amplification of the non-G+C-rich template OCT1 ([8]; formamide >5%)
did not result in visible amplification	did not result in visible amplification	could be amplified	could be amplified	could be amplified	could be amplified	inhibitory	C[N+](C)(C)CC(=O)O [Glycine betaine]	not amplified uniformly	variable amplification	amplified to a varying extent	–	–	–	–	–
did not result in visible amplification	did not result in visible amplification	–	–	–	–	–	OCC(O)CO [glycerol]	–	–	–	–	–	–	–	–
